Test results published in patent publication US20100267561A1, “HERBICIDAL PYRIDAZINONE DERIVATIVES” (priority 2007, published 2010).

Assays:
Test in all cases: Test B pre-/postemergence plant response
Assay type in all cases: in vivo
[1] = system: Italian ryegrass (Lolium multiflorum); conditions: Preemergence
Description: (§1) Seeds of plant species selected from blackgrass (Alopecurus myosuroides), downy bromegrass (Bromus tectorum), green foxtail (Setaria viridis), Italian ryegrass (Lolium multiflorum), wheat (Triticum aestivum), wild oat (Avena fatua), catchweed bedstraw (Galium aparine), bermudagrass (Cynodon dactylon), surinam grass (Brachiaria decumbens), cocklebur (Xanthium strumarium), corn (Zea mays), large crabgrass (Digitaria sanguinalis), woolly cupgrass (Eriochloa villosa), giant foxtail (Setaria faberii), goosegrass (Eleusine indica), johnsongrass (Sorghum halepense), kochia (Kochia scoparia), lambsquarters (Chenopodium album), morningglory (Ipomoea coccinea), eastern black (E.B.) nightshade (Solanum ptycanthum), yellow nutsedge (Cyperus esculentus), pigweed (Amaranthus retroflexus), common ragweed (Ambrosia elation), Russian thistle (Salsola iberica), soybean (Glycine max), common (oilseed) sunflower (Helianthus annuus), and velvetleaf (Abutilon theophrasti) were planted and treated preemergence with test chemicals formulated in a non-phytotoxic solvent mixture which included a surfactant.
(§2) At the same time, plants selected from these crop and weed species and also winter barley (Hordeum vulgare), canarygrass (Phalaris minor), chickweed (Stellaria media) and windgrass (Apera spica-venti) were treated with postemergence applications of some of the test chemicals formulated in the same manner. Plants ranged in height from 2 to 18 cm (1- to 4-leaf stage) for postemergence treatments.
(§3) Plant species in the flooded paddy test consisted of rice (Oryza sativa), umbrella sedge (Cyperus difformis), ducksalad (Heteranthera limosa) and barnyardgrass (Echinochloa crus-galli) grown to the 2-leaf stage for testing. At time of treatment, test pots were flooded to 3 cm above the soil surface, treated by application of test compounds directly to the paddy water, and then maintained at that water depth for the duration of the test. Treated plants and controls were maintained in a greenhouse for 13 to 15 days, after which time all species were compared to controls and visually evaluated. Plant response ratings, summarized in Table B, are based on a scale of 0 to 100 where 0 is no effect and 100 is complete control. A dash (-) response means no test result.

[2] = system: downy bromegrass (Bromus tectorum); conditions: Preemergence; for Bromegrass, Downy plant response rating: 8 g ai/ha
Description: as §1, §2, §3

soybean (Glycine max) = conditions: Preemergence
Description: as §1, §2, §3

[3] = system: pigweed (Amaranthus retroflexus); conditions: Preemergence
Description: as §1, §2, §3

[4] = system: bermudagrass (Cynodon dactylon); conditions: Preemergence; for Bermudagrass plant response rating: 8 g ai/ha
Description: as §1, §2, §3

[5] = system: common (oilseed) sunflower (Helianthus annuus); conditions: Preemergence
Description: as §1, §2, §3

[6] = system: morningglory (Ipomoea coccinea); conditions: Preemergence
Description: as §1, §2, §3

[7] = system: lambsquarters (Chenopodium album); conditions: Preemergence
Description: as §1, §2, §3

[8] = system: surinam grass (Brachiaria decumbens); conditions: Preemergence
Description: as §1, §2, §3

[9] = system: wheat (Triticum aestivum); conditions: Preemergence
Description: as §1, §2, §3

[10] = system: giant foxtail (Setaria faberii); conditions: Preemergence
Description: as §1, §2, §3

[11] = 16 g ai/ha, scale 0 to 100 (0 no effect, 100 complete control)
[12] = 31 g ai/ha, 0 to 100 scale, 0 no effect, 100 complete control
[13] = scale 0 to 100 (0 no effect, 100 complete control)
[14] = 31 g ai/ha, scale 0 to 100 (0 no effect, 100 complete control)
[15] = 62 g ai/ha, 0 to 100 scale, 0 no effect, 100 complete control

Cn1ncc(O)c(-c2nn(-c3ccc(Cl)cc3)cc2Br)c1=O [Compound 31]
Plant response rating, Ryegrass, Italian [1, 11]: 90 | Plant response rating, Ryegrass, Italian [1, 12]: 90 | Plant response rating, Ryegrass, Italian ([1]; 62 g ai/ha, scale 0 to 100): 100 | Ryegrass, Italian plant response rating ([1]; 8 g ai/ha, scale 0 to 100): 50 | Plant response rating, Bromegrass, Downy [2, 11]: 0 | Plant response rating, Bromegrass, Downy [2, 12]: 65 | Plant response rating, Bromegrass, Downy ([2]; 62 g ai/ha, scale 0 to 100): 85 | Bromegrass, Downy plant response rating ([2]; scale 0 to 100): 0 | Plant response rating, Soybean (soybean (Glycine max); [11]): 0 | Plant response rating, Soybean (soybean (Glycine max); [12]): 0 | Plant response rating, Soybean (soybean (Glycine max); 62 g ai/ha, scale 0 to 100): 60 | Soybean plant response rating (soybean (Glycine max); 8 g ai/ha, scale 0 to 100): 0 | Plant response rating, Pigweed [3, 11]: 0 | Plant response rating, Pigweed [3, 12]: 0 | Plant response rating, Pigweed ([3]; 62 g ai/ha, scale 0 to 100): 0 | Pigweed plant response rating ([3]; 8 g ai/ha, scale 0 to 100): 0 | Bermudagrass plant response rating [4, 13]: 95 | Plant response rating, Bermudagrass [4, 11]: 100 | Plant response rating, Bermudagrass [4, 12]: 100 | Plant response rating, Bermudagrass ([4]; 62 g ai/ha, scale 0 to 100): 100 | Plant response rating, Sunflower [5, 11]: 0 | Plant response rating, Sunflower [5, 12]: 0 | Plant response rating, Sunflower ([5]; 62 g ai/ha, scale 0 to 100): 0 | Sunflower plant response rating ([5]; 8 g ai/ha, scale 0 to 100): 0 | Plant response rating, Morningglory [6, 11]: 0 | Plant response rating, Morningglory [6, 12]: 0 | Plant response rating, Morningglory ([6]; 62 g ai/ha, scale 0 to 100): 0 | Morningglory plant response rating ([6]; 8 g ai/ha, scale 0 to 100): 0 | Plant response rating, Lambsquarters [7, 11]: 0 | Plant response rating, Lambsquarters [7, 12]: 0 | Plant response rating, Lambsquarters ([7]; 62 g ai/ha, scale 0 to 100): 0 | Lambsquarters plant response rating ([7]; 8 g ai/ha, scale 0 to 100): 0 | Plant response rating, Surinam Grass [8, 11]: 80 | Plant response rating, Surinam Grass [8, 12]: 100 | Plant response rating, Surinam Grass ([8]; 62 g ai/ha, scale 0 to 100): 100 | Surinam Grass plant response rating ([8]; 8 g ai/ha, scale 0 to 100): 80 | Plant response rating, Wheat [9, 11]: 0 | Plant response rating, Wheat [9, 12]: 0 | Plant response rating, Wheat ([9]; 62 g ai/ha, scale 0 to 100): 80 | Wheat plant response rating ([9]; 8 g ai/ha, scale 0 to 100): 0 | Plant response rating, Foxtail, Giant [10, 11]: 90 | Plant response rating, Foxtail, Giant [10, 12]: 100 | Plant response rating, Foxtail, Giant ([10]; 62 g ai/ha, scale 0 to 100): 100 | Foxtail, Giant plant response rating ([10]; 8 g ai/ha, scale 0 to 100): 90

Cc1cc(-c2ccc(Cl)cc2)nn1-c1c(OS(=O)(=O)c2ccccc2[N+](=O)[O-])cnn(C)c1=O [Compound 51]
Plant response rating, Ryegrass, Italian [1, 14]: 100 | Plant response rating, Ryegrass, Italian ([1]; 62 g ai/ha, scale 0 to 100): 100 | Ryegrass, Italian plant response rating ([1]; 8 g ai/ha, scale 0 to 100): 100 | Ryegrass, Italian plant response rating ([1]; 16 g ai/ha, scale 0 to 100): 100 | Plant response rating, Bromegrass, Downy [2, 11]: 0 | Plant response rating, Bromegrass, Downy [2, 12]: 45 | Plant response rating, Bromegrass, Downy ([2]; 62 g ai/ha, scale 0 to 100): 85 | Bromegrass, Downy plant response rating ([2]; scale 0 to 100): 0 | Plant response rating, Soybean (soybean (Glycine max); [14]): 0 | Plant response rating, Soybean (soybean (Glycine max); 62 g ai/ha, scale 0 to 100): 0 | Soybean plant response rating (soybean (Glycine max); 8 g ai/ha, scale 0 to 100): 0 | Soybean plant response rating (soybean (Glycine max); 16 g ai/ha, scale 0 to 100): 0 | Plant response rating, Pigweed [3, 14]: 0 | Plant response rating, Pigweed ([3]; 62 g ai/ha, scale 0 to 100): 0 | Pigweed plant response rating ([3]; 8 g ai/ha, scale 0 to 100): 0 | Pigweed plant response rating ([3]; 16 g ai/ha, scale 0 to 100): 0 | Bermudagrass plant response rating [4, 13]: 60 | Plant response rating, Bermudagrass [4, 11]: 100 | Plant response rating, Bermudagrass [4, 12]: 100 | Plant response rating, Bermudagrass ([4]; 62 g ai/ha, scale 0 to 100): 100 | Plant response rating, Sunflower [5, 14]: 0 | Plant response rating, Sunflower ([5]; 62 g ai/ha, scale 0 to 100): 0 | Sunflower plant response rating ([5]; 8 g ai/ha, scale 0 to 100): 0 | Sunflower plant response rating ([5]; 16 g ai/ha, scale 0 to 100): 0 | Plant response rating, Morningglory [6, 14]: 0 | Plant response rating, Morningglory ([6]; 62 g ai/ha, scale 0 to 100): 0 | Morningglory plant response rating ([6]; 8 g ai/ha, scale 0 to 100): 0 | Morningglory plant response rating ([6]; 16 g ai/ha, scale 0 to 100): 0 | Plant response rating, Lambsquarters [7, 12]: 0 | Plant response rating, Lambsquarters ([7]; 62 g ai/ha, scale 0 to 100): 0 | Plant response rating, Surinam Grass [8, 14]: 90 | Plant response rating, Surinam Grass [8, 15]: 100 | Surinam Grass plant response rating ([8]; 8 g ai/ha, scale 0 to 100): 30 | Surinam Grass plant response rating ([8]; 16 g ai/ha, scale 0 to 100): 75 | Plant response rating, Wheat [9, 14]: 10 | Plant response rating, Wheat [9, 15]: 60 | Wheat plant response rating ([9]; 8 g ai/ha, scale 0 to 100): 0 | Wheat plant response rating ([9]; 16 g ai/ha, scale 0 to 100): 0 | Plant response rating, Foxtail, Giant [10, 12]: 100 | Plant response rating, Foxtail, Giant ([10]; 62 g ai/ha, scale 0 to 100): 100 | Foxtail, Giant plant response rating ([10]; 8 g ai/ha, scale 0 to 100): 80 | Foxtail, Giant plant response rating ([10]; 16 g ai/ha, scale 0 to 100): 100

C#CCOC(=O)Oc1cnn(C)c(=O)c1-n1nc(-c2ccc(Cl)cc2)cc1C [Compound 58]
Plant response rating, Ryegrass, Italian [1, 14]: 100 | Plant response rating, Ryegrass, Italian [1, 15]: 100 | Ryegrass, Italian plant response rating ([1]; 8 g ai/ha, scale 0 to 100): 0 | Ryegrass, Italian plant response rating ([1]; 16 g ai/ha, scale 0 to 100): 100 | Plant response rating, Bromegrass, Downy [2, 14]: 65 | Plant response rating, Bromegrass, Downy [2, 15]: 85 | Bromegrass, Downy plant response rating ([2]; scale 0 to 100): 0 | Plant response rating, Soybean (soybean (Glycine max); [14]): 0 | Plant response rating, Soybean (soybean (Glycine max); [15]): 0 | Soybean plant response rating (soybean (Glycine max); 8 g ai/ha, scale 0 to 100): 0 | Soybean plant response rating (soybean (Glycine max); 16 g ai/ha, scale 0 to 100): 0 | Plant response rating, Pigweed [3, 14]: 0 | Plant response rating, Pigweed [3, 15]: 0 | Pigweed plant response rating ([3]; 8 g ai/ha, scale 0 to 100): 0 | Pigweed plant response rating ([3]; 16 g ai/ha, scale 0 to 100): 0 | Bermudagrass plant response rating [4, 13]: 100 | Plant response rating, Bermudagrass [4, 11]: 100 | Plant response rating, Bermudagrass [4, 14]: 100 | Plant response rating, Bermudagrass [4, 15]: 100 | Plant response rating, Sunflower [5, 14]: 0 | Plant response rating, Sunflower [5, 15]: 0 | Sunflower plant response rating ([5]; 8 g ai/ha, scale 0 to 100): 0 | Sunflower plant response rating ([5]; 16 g ai/ha, scale 0 to 100): 0 | Plant response rating, Morningglory [6, 14]: 0 | Plant response rating, Morningglory [6, 15]: 0 | Morningglory plant response rating ([6]; 8 g ai/ha, scale 0 to 100): 0 | Morningglory plant response rating ([6]; 16 g ai/ha, scale 0 to 100): 0 | Plant response rating, Lambsquarters [7, 14]: 95 | Plant response rating, Lambsquarters [7, 15]: 100 | Lambsquarters plant response rating ([7]; 8 g ai/ha, scale 0 to 100): 0 | Lambsquarters plant response rating ([7]; 16 g ai/ha, scale 0 to 100): 0 | Plant response rating, Surinam Grass [8, 14]: 98 | Plant response rating, Surinam Grass [8, 15]: 100 | Surinam Grass plant response rating ([8]; 8 g ai/ha, scale 0 to 100): 95 | Surinam Grass plant response rating ([8]; 16 g ai/ha, scale 0 to 100): 98 | Plant response rating, Wheat [9, 14]: 40 | Plant response rating, Wheat [9, 15]: 80 | Wheat plant response rating ([9]; 16 g ai/ha, scale 0 to 100): 0 | Plant response rating, Foxtail, Giant [10, 14]: 100 | Plant response rating, Foxtail, Giant [10, 15]: 100 | Foxtail, Giant plant response rating ([10]; 8 g ai/ha, scale 0 to 100): 55 | Foxtail, Giant plant response rating ([10]; 16 g ai/ha, scale 0 to 100): 95
